Test results as given in patent US7671181B2, “Polynucleotides encoding coccidian parasite casein kinase I, a chemotherapeutic target for antiprotozoal agents” (Merck Sharp & Dohme Corp., priority 2004, dated 2010).

Key:
TgCKIβ = TgCKIβ (Toxoplasma gondii, UniProt Q6QNM0); test: Casein kinase assay, recombinant FLAGTgCKIβ; format: biochemical; conditions: recombinant enzyme; read-out: IC50 against TgCKIβ
Protocol: (§1) Protein kinase assays—Casein kinase activity was assayed essentially as described (Donald, R. G. K. et al., 2002, supra) using 96-well phosphocellulose plates (MAPH-NOB, Millipore; Billerica, Mass.) to capture ^33P-phosphorylated peptide or casein substrates. Kinase reactions were carried out in 40 μl volumes containing 25 mM Hepes, pH 7.4, 10 mM MgCl2, 20 mM β-glycerophosphate, 1 mM DTT, 250 μM substrate, 1 mg/mL BSA, 2 μM ATP, and 0.01 μM [γ-^33P]ATP (Perkin-Elmer, 3000 Ci/mmol). […] Casein (5% solution), partially dephosphorylated α-casein and β-casein were obtained from Sigma.
(§2) A variety of commercially available peptide substrates were evaluated. From Calbiochem (San Diego, Calif.): CKI substrate (RRKDLHDDEEDEAMSITA; SEQ ID NO:13); CKII substrate (RRADDSDDDDD; SEQ ID NO:14); Syntide-2 substrate (PLARTLSVAGLPGKK; SEQ ID NO:15); CaM kinase II substrate (281-291) (MHKNETVECLK; SEQ ID NO:16). From Promega: CKI substrate (DDDEESITRR; SEQ ID NO:17) and kemptide (LRRASLG; SEQ ID NO:18). From New England Biolabs (Beverly, Mass.): CKI phosphopeptide substrate (KRRRALS(p)VASLPGL; SEQ ID NO:19), and CKII substrate (RRREEETEEE; SEQ ID NO:20). PKG assays were performed with kemptide as substrate and 10 μM cGMP. CDPK was assayed with Syntide-2 substrate and in the presence of 100 μM CaCl2.
Purification of recombinant CKI enzymes—E. coli strain BL21 Origami™ (Novagen) was transformed with FLAGTgCKIα and FLAGTgCKIβ expression vectors, and colonies were expanded into 250 mL LB cultures grown at 37° C. Expression was induced with 1 mM IPTG once cultures had reached an OD600nm of 0.3-0.5, and the transformed bacteria were harvested 4-6 hours later. Cell pellets were resuspended in 15 mL of lysis buffer containing protease inhibitors and lysates prepared as described by the supplier (Bugbuster™ reagents, Novagen). The concentration of NaCl in the lysate was adjusted to 0.5 M, and 0.5 mL of FLAG-agarose beads were added (Sigma). The mixture was allowed to rock in a Nutator mixer (Becton-Dickinson; San Jose, Calif.) for 2 hours at 4° C. The slurry was then poured into an empty column and the matrix washed with 50 mL of wash buffer (50 mM Tris-HCl, pH 7.4, 0.5M NaCl, 10% glycerol, 1 mM DTT, 1 mM EDTA). Enzyme was eluted with 5 mL of 0.4 mg/mL FLAG peptide (Sigma) in NaCl-free wash buffer and concentrated with a centrifuge filtration unit (Amicon Ultra®, 10 kDa cut-off, Millipore). Protein was measured with a micro-BCA reagent (Pierce) following a TCA-sodium deoxycholate step to remove residual FLAG peptide (Brown et al., 1989, Anal. Biochem. 180:136-139). Using this procedure, and SDS-PAGE analysis, the yield of FLAGTgCKIβ was estimated as ˜200 μg of enzyme with >90% purity. Purification of FLAGTgCKIα was much less efficient with only about 1 μg of ˜10% pure enzyme obtained per 250 mL bacterial culture.
(§3) Preparations of FLAGTgCKIα and FLAGTgCKIβ were purified further on a SMART system FPLC 0.1 mL MonoQ anion exchange column (Pharmacia; New York, N.Y.) equilibrated in buffer A (50 mM Hepes, pH 7.4, 10% glycerol, 1 mM DTT) at room temperature. Samples of FLAG-affinity purified enzyme (10-100 μg) were syringe-passed through a 0.22 μm (pore-size) filter before loading on the column. A linear salt gradient was applied (0-500 mM in 3 mL at 100 μl/min) and 100 μl fractions were collected and analyzed by SDS-PAGE and for CKI activity. Fractions with peak activity were retained for further analysis. The degree of purity of the partially purified FLAGTgCKIα was estimated by densitometry of silver stained SDS-PAGE gels. A recombinant rat CKIδ enzyme used for control purposes was obtained from New England Biolabs.

TgCKIα = TgCKIα (Toxoplasma gondii, UniProt Q6QNM1); test: Casein kinase assay, TgCKIα (recombinant FLAGTgCKIα or partially purified native); format: biochemical; design: other: recombinant or native forms of TgCKIα
Chain of TgCKIα (Q6QNM1 whole entry, looked up): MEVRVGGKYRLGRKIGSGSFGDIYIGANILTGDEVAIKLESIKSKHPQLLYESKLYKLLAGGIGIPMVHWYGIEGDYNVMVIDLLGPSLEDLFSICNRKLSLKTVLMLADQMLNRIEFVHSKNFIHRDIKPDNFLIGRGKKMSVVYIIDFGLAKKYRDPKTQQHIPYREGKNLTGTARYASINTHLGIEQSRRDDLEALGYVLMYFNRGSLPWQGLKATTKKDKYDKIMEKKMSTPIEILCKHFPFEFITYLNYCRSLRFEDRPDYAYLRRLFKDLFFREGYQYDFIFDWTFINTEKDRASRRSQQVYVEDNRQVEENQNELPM
Protocol: as §1, §2
(§4) Purification of recombinant CKI enzymes—E. coli strain BL21 Origami™ (Novagen) was transformed with FLAGTgCKIα and FLAGTgCKIβ expression vectors, and colonies were expanded into 250 mL LB cultures grown at 37° C. […] Protein was measured with a micro-BCA reagent (Pierce) following a TCA-sodium deoxycholate step to remove residual FLAG peptide (Brown et al., 1989, Anal. Biochem. 180:136-139). […]
Preparations of FLAGTgCKIα and FLAGTgCKIβ were purified further on a SMART system FPLC 0.1 mL MonoQ anion exchange column (Pharmacia; New York, N.Y.) equilibrated in buffer A (50 mM Hepes, pH 7.4, 10% glycerol, 1 mM DTT) at room temperature. […] A linear salt gradient was applied (0-500 mM in 3 mL at 100 μl/min) and 100 μl fractions were collected and analyzed by SDS-PAGE and for CKI activity. […]

rat CKIδ = target: T1, rat CKIδ (Rattus norvegicus, UniProt Q06486); test: Casein kinase assay, recombinant rat CKIδ control enzyme; format: biochemical; conditions: read-out: IC50 against rodent CKIδ
T1 construct: purchased New England Biolabs
T1 sequence (Q06486 1-317 limits assumed): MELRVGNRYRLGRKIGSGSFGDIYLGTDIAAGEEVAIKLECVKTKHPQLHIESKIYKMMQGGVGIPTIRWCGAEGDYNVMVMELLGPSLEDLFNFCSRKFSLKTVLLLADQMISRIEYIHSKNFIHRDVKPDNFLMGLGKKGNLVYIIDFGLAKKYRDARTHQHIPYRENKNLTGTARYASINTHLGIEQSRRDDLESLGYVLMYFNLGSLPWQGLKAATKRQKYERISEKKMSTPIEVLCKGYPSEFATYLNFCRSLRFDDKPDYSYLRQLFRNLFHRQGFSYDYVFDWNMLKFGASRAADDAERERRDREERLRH
Protocol: (§5) Protein kinase assays—Casein kinase activity was assayed essentially as described (Donald, R. G. K. et al., 2002, supra) using 96-well phosphocellulose plates (MAPH-NOB, Millipore; Billerica, Mass.) to capture ^33P-phosphorylated peptide or casein substrates. Kinase reactions were carried out in 40 μl volumes containing 25 mM Hepes, pH 7.4, 10 mM MgCl2, 20 mM β-glycerophosphate, 1 mM DTT, 250 μM substrate, 1 mg/mL BSA, 2 μM ATP, and 0.01 μM [γ-^33P]ATP (Perkin-Elmer, 3000 Ci/mmol). The reactions were initiated by the addition of enzyme and incubated at room temperature for 60 min. Casein (5% solution), partially dephosphorylated α-casein and β-casein were obtained from Sigma.
as §3, with “A recombinant rat CKIδ enzyme used for control purposes was obtained from New England Biolabs.” left out

mammalian CDK5 = mammalian CDK5 (Homo sapiens, UniProt Q00535); conditions: Knockaert et al., 2002; cited from earlier work
Chain of mammalian CDK5 (Q00535 whole entry): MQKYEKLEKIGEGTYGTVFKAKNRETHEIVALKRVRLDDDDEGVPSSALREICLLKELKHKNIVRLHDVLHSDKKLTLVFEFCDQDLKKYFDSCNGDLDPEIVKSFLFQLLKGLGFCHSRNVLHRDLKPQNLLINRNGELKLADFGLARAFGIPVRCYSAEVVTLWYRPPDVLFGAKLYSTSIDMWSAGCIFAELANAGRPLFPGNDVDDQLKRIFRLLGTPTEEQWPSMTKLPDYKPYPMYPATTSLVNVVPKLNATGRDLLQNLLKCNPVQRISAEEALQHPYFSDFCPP
Chain of mammalian CDK5 (Q15078 99-307 partner limits assumed): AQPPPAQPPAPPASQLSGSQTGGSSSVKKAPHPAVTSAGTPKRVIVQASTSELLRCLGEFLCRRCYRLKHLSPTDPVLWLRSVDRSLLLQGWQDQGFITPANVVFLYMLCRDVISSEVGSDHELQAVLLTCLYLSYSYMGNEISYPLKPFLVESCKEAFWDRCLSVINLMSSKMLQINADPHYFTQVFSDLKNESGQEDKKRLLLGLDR

mammalian CDK1 = mammalian CDK1 (Homo sapiens, UniProt P06493); conditions: Knockaert et al., 2002; cited from earlier work
Chain of mammalian CDK1 (P06493 whole entry): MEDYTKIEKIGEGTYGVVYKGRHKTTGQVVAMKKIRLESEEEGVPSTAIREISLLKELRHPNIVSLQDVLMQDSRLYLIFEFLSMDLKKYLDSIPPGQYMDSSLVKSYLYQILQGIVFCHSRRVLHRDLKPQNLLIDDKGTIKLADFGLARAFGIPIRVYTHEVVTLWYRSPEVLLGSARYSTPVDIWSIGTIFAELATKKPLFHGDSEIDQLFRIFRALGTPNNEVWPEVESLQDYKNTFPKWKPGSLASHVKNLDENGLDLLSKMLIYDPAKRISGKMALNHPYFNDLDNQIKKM
Chain of mammalian CDK1 (P14635 whole entry partner): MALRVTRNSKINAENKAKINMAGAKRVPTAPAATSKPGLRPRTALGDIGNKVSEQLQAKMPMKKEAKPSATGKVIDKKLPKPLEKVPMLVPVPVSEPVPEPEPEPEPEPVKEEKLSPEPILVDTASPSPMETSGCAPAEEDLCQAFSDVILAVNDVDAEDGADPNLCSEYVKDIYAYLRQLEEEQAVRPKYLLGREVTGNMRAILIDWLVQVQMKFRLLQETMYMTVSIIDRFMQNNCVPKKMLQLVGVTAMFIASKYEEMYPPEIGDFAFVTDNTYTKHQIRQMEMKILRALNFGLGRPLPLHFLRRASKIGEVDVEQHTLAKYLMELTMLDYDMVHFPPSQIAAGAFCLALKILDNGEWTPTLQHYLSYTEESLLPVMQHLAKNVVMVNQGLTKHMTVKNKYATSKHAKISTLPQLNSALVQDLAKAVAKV

[1] = tested on: T. gondii PKG, CKIα and -β, and CDPK1; native E. tenella CKIα; test: Protein kinase assays, the parasite kinases tested (Table 2 panel); format: biochemical
Protocol: as §5, §2

T. gondii tachyzoites = test: [3H]-uracil uptake assay of parasite growth inhibition in infected HFF cell monolayers; format: cell-based, Toxoplasma gondii
Text: Host cells and parasite cultures—RH strain or RH ΔHXGPRT strain tachyzoites of T. gondii were maintained by serial passage in confluent monolayers of human foreskin fibroblasts (“HFF”) as described (Roos, D. S. et al., 1994, Methods Cell Biol. 45:27-63). A modified [^3H]-uracil uptake assay (Pfefferkorn, E. R. and Pfefferkorn, L. C., 1977, J. Protozool. 24:449-453) adapted for use in 96-well scintillation plates (Cytostar-T, Amersham; Piscataway, N.J.) was used to measure parasite growth inhibition. Each well, previously seeded with HFF cells, was inoculated with T. gondii tachyzoites (2×10^4) in 200 μl of growth media containing 2 μCi [5,6]-^3H-uracil (Perkin-Elmer NEN; Boston, Mass.) and serially diluted compound. Following incubation at 37° C. for 36-48 hours, tritium-incorporation into host cell monolayers was directly counted in a microplate scintillation counter (MicroBeta, PerkinElmer-Wallac).

[2] = tested on: CC(C)C[C@H](NC(=O)CNC(=O)[C@@H]1CCCN1C(=O)[C@H](CC(C)C)NC(=O)[C@H](CO)NC(=O)[C@H](C)NC(=O)[C@@H](NC(=O)[C@H](COP(=O)(O)O)NC(=O)[C@H](CC(C)C)NC(=O)[C@H](C)NC(=O)[C@H](CCCNC(=N)N)NC(=O)[C@H](CCCNC(=N)N)NC(=O)[C@H](CCCNC(=N)N)NC(=O)[C@@H](N)CCCCN)C(C)C)C(=O)O; test: Casein kinase assay, TgCKIα (recombinant FLAGTgCKIα or partially purified native); format: biochemical; conditions: other: substrate titration, 2 μM ATP; pH 7.4; 37.0 °C
Protocol: as §1
(§6) A variety of commercially available peptide substrates were evaluated. From Calbiochem (San Diego, Calif.): CKI substrate (RRKDLHDDEEDEAMSITA; SEQ ID NO:13); CKII substrate (RRADDSDDDDD; SEQ ID NO:14); Syntide-2 substrate (PLARTLSVAGLPGKK; SEQ ID NO:15); CaM kinase II substrate (281-291) (MHKNETVECLK; SEQ ID NO:16). From Promega: CKI substrate (DDDEESITRR; SEQ ID NO:17) and kemptide (LRRASLG; SEQ ID NO:18). […]
as §4

[3] = substrate: CC(C)C[C@H](NC(=O)CNC(=O)[C@@H]1CCCN1C(=O)[C@H](CC(C)C)NC(=O)[C@H](CO)NC(=O)[C@H](C)NC(=O)[C@@H](NC(=O)[C@H](COP(=O)(O)O)NC(=O)[C@H](CC(C)C)NC(=O)[C@H](C)NC(=O)[C@H](CCCNC(=N)N)NC(=O)[C@H](CCCNC(=N)N)NC(=O)[C@H](CCCNC(=N)N)NC(=O)[C@@H](N)CCCCN)C(C)C)C(=O)O; test: Casein kinase assay, recombinant FLAGTgCKIβ; format: biochemical; conditions: other: substrate titration, 2 μM ATP; pH 7.4; 37.0 °C
Protocol: as §1, §6, §4

NC1=NC(=O)/C(=C2\CCNC(=O)c3[nH]c(Br)cc32)N1 [Hymenialdisine]
IC50 (TgCKIβ): 0.007 to 0.01 µM | IC50 (TgCKIα): 0.007 to 0.01 µM | IC50 (rat CKIδ): 0.06 µM

O=C1Cc2c([nH]c3ccc([N+](=O)[O-])cc23)-c2ccccc2N1 [alsterpaullone]
potency against mammalian CDK5 relative to kenpaullone (mammalian CDK5): at least 10 fold | potency against mammalian CDK1 relative to kenpaullone (mammalian CDK1): at least 10 fold | activity against the parasite kinases tested [1]: Neither kenpaullone nor alsterpaullone showed any activity | IC50 (T. gondii tachyzoites; Toxoplasma gondii, infected HFF cell monolayers, read-out: IC50, antiparasitic activity in the whole cell assay): 1.2 µM

O=C1Cc2c([nH]c3ccc(Br)cc23)-c2ccccc2N1 [kenpaullone]
activity against the parasite kinases tested [1]: Neither kenpaullone nor alsterpaullone showed any activity | activity against cultured T. gondii parasites (T. gondii tachyzoites; uracil uptake / whole cell assay): inactive

TgCKIα (Toxoplasma gondii)
Vmax [2]: 26 nmol/min/mg

B1: TgCKIβ (Toxoplasma gondii) (protein)
chain: MAHHQDTRNHTGVGPSSSIPLKDLKIAGVWKIGRKIGSGSFGDIYKGLNSQTGQEVALKVESTKAKHPQLLYEYKLLKHLQGGTGIAQVFCCETAGDHNIMAMELLGPSLEDVFNLCNRTFSLKTILLLADQFLQRVEYIHSKNFIHRDIKPDNFLLGGAGNQNTIYVIDFGLAKKFRDPKTHQHIPYRENKNLTGTARYASISAHLGSEQSRRDDLEAVGYVLMYFCRGGTLPWQGIKANTKQEKYHKIMEKKMSTPVEVLCKGYPSEFATYLHYCRSLRFEDRPDYAYLKRLFRDLYIKEGYDDSDREFDWTVKLSSRSLGPPSSRAQHVLLSQDTRTRGKRETDRPVAARSGDRERGIHFSNGNVGNPSMATNPGGLSVMVHERTSLVDQGDRGSRETSTRKEDAKDGRWPGGRFSCLPLLCRRSPTKA
Km [3]: 79 µM | Vmax [3]: 37 nmol/min/mg
